Test results reported in US20250281596A1, “IONIZABLE CATIONIC COMPOUND” (priority 2021, published 2025).

Assays:
physchem = format: physicochemical; details: saRNA-LNP with the lipid; TNS, pH 4 to 9.5, 25° C.; read-out: Apparent pKa
Protocol: In a black 96-well plate, solutions of saRNA-LNP (final assay concentration 2 μg/mL total RNA) in a series of buffers ranging from pH 4 to 9.5 were prepared. Buffers between pH 4 to 7.6 were prepared from disodium phosphate and citric acid. Buffers from 7.8 to 9.5 were prepared by titrating tris buffer with 10 N sodium hydroxide. To each well was added 6-(p-Toluidino)-2-naphthalenesulfonic acid sodium salt (TNS) in water to a final assay concentration of 6 μM. The fluorescence was read on a plate reader at 25° C. with an excitation setting of 321 nm and an emission setting of 445 nm. The intensity values were plotted as a function of pH using GraphPad Prism and were fit with a sigmoidal dose response curve. The apparent pKa was determined as the EC50 of this curve where half of the ionizable amines are expected to be protonated (see FIG. 1).

BHK-21 cells = assay: In vitro potency: transfection of BHK-21 cells, 96-well imaging (Cytation 5); format: cell-based; details: LNPs encapsulating saRNA expressing H5 and N1, FIG. 3
Protocol: For LNPs prepared with SL16, SL17, SL18, and SL21, a similar assay was performed in a 96-well plate using BHK-21 cells and analysed using a Cytation 5 Cell Imaging Multimode Reader (Agilent). The results of this assay were analysed in the same way as described for the flow cytometry assay, except only an H5-antibody was used for detection. In vitro transfection potency was determined for LNPs containing lipids SL16, SL17, SL18, and SL21. […] SL16 LNP, SL17 LNP, and SL18 LNP were formulated using a flow-rate ratio of 2:1. SL17 LNP2, SL18 LNP2, and SL21 were formulated using a flow-rate ratio of 3:1 (FIG. 3).

CCCCCCCCCC(CCCCCCCCC(=O)OCC(CCCC)CCCCCC)OC(=O)CC1CCN(C)CC1 (stereo not drawn) [SL14]
pKa (physchem): 6.63

CCCCCCCCCC(CCCCCCCCC(=O)OCC(CCCC)CCCCCC)OC(=O)CCC1CCN(C)CC1 (stereo not drawn) [SL15]
pKa (physchem): 7.13

CCCCCCCCCC(CCCCCCCCC(=O)OCC(CCCC)CCCCCC)OC(=O)C1CCN(CCCO)CC1 (stereo not drawn) [SL16]
Ability to transfect cells (H5-antibody detection) (BHK-21 cells): able to transfect BHK-21 cells in vitro

CCCCCCCCCC(CCCCCCCCC(=O)OCC(CCCC)CCCCCC)OC(=O)CC1CCN(CCCO)CC1 (stereo not drawn) [SL17]
Ability to transfect cells (H5-antibody detection) (BHK-21 cells): able to transfect BHK-21 cells in vitro

CCCCCCCCCC(CCCCCCCCC(=O)OCC(CCCC)CCCCCC)OC(=O)CCC1CCN(CCCO)CC1 (stereo not drawn) [SL18]
Ability to transfect cells (H5-antibody detection) (BHK-21 cells): able to transfect BHK-21 cells in vitro

CCCCCCCCCC(CCCCCCCCOC(=O)CC(CCCC)CCCCCC)OC(=O)CC1CCN(CCCO)CC1 (stereo not drawn) [SL21]
Ability to transfect cells (H5-antibody detection) (BHK-21 cells): able to transfect BHK-21 cells in vitro
